Experimental findings from ChEMBL document CHEMBL1201862, “PubChem BioAssay data set” (2004) are described below.

Where a name gives a salt, the structure may show the parent alone. Calls of active or inactive are those of the source.

As a reminder, the AC50 is the concentration at which the activity in the assay is half-maximal. Usually IC50 stands for the concentration that inhibits the measured activity by half. Broadly, the EC50 is the concentration at which the effect is half-maximal.

In one assay the target is Cytochrome P450 3A4 (Homo sapiens, UniProt P08684). The following applies: Potency.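 Note: confirmatory qHTS run detecting inhibitors and substrates of CYP3A4.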
Assay [1] has as its target T1, High affinity choline transporter 1 (Homo sapiens, UniProt Q9GZV3).
T1 sequence (Q9GZV3 whole entry): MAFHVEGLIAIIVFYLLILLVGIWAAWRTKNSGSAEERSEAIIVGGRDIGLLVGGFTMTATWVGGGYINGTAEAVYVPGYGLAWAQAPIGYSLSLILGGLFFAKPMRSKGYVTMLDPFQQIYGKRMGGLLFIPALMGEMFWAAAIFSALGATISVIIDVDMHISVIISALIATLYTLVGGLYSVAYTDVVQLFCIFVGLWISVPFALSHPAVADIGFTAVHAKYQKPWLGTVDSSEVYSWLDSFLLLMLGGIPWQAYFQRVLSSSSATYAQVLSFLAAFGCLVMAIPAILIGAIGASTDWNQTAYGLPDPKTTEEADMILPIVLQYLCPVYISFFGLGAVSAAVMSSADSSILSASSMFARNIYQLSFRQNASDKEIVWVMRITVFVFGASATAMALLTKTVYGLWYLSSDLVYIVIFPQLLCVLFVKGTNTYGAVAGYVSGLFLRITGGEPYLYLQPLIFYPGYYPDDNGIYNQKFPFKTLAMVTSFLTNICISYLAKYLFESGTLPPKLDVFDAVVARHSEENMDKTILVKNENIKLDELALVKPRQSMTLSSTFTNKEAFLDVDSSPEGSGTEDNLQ
Briefly: CHT inhibitors, dose response, cell-based, 5-point CRC, membrane potential dye (AID 504840). Type of assay: functional.

A short description of assay [2]: inhibitors of intracellular T. cruzi replication, confirmation, NIH3T3 host cells, beta-gal luminescence (AID 2044).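 Note: intracellular parasites grown in NIH/3T3 mouse fibroblasts as host cells; luminescent beta-galactosidase reporter signal from transgenic T. cruzi replicating inside host cells; inhibitors lower the luminescence signal.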 Type of assay: functional, cell-based.
Assay [3] in a line: cytotoxicity toward NIH3T3 fibroblasts, dose response, counter-screen, cell-based, ATP luminescence, mouse fibroblasts (AID 2010).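 Note: cells exposed to compound for about 90 hours before reading.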 Type of assay: functional. For orientation: A counterscreen serves to expose hits that act by an unwanted route or on another target.
Assay [4] is described as follows: microbe, parasite or virus in culture. Type of assay: functional. The following applies: Mycobacterium tuberculosis.
Another assay deals with SUMO-activating enzyme (Homo sapiens, UniProt Q9UBT2). In words: SUMOylation inhibitor hit validation, confirmation, SUMOylation inhibitor project, biochemical, AlphaScreen (AID 2018). Type of assay: functional.
A further assay concerns the target Cytochrome P450 2C9 (Homo sapiens, UniProt P11712).
Assay [5] addresses T2, Carboxy-terminal domain RNA polymerase II polypeptide A small phosphatase 1 (Homo sapiens, UniProt Q9GZU7).
T2 sequence (Q9GZU7 whole entry): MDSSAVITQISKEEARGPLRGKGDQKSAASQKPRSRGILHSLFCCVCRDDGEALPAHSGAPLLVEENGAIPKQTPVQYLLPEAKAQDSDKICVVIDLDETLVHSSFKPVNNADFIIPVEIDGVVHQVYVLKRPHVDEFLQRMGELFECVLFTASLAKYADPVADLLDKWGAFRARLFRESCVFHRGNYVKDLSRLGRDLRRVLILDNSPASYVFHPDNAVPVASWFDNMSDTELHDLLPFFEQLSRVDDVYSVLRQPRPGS
Briefly: inhibitors of CTDSP1, concentration-response testing, biochemical assay, absorbance-based, actives from ultra-high-throughput screening (AID 540297). Type of assay: functional.

The target of assay [6] is Glyceraldehyde-3-phosphate dehydrogenase (Homo sapiens, UniProt P04406).
In assay [7] the test system is HEK293. Briefly: cells. Type of assay: functional, cell-based. The following applies: Homo sapiens.
For assay [8], the system named is HEK293. In words: cells. It is filed as functional, cell-based. Particulars: Homo sapiens. This is another data set of the same source.
The subject of assay [9] is HEK293. Briefly: NOD1 signaling inhibitors, primary screen, cell-based, luminescence, uHTS (AID 1578). Type of assay: functional. Particulars: Homo sapiens.
For another assay, the system named is INS1. In words: beta cell apoptosis inhibitors, cytokine rescue, dose response, luminescence, retest (AID 449756).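 Note: cell death triggered by IL-1 beta plus TNF-alpha plus IFN-gamma mixture; protective hits raise ATP signal compared with cytokine alone wells.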 It is filed as functional, cell-based. The following applies: Rattus norvegicus.
Assay [10] deals with HEK293. Briefly: NOD2 signaling inhibitors in MDP-stimulated cells, cell-based, uHTS, luminescence (AID 2001). It is filed as functional. The following applies: Homo sapiens.
For assay [11], the target named is T3, E3 ubiquitin-protein ligase XIAP (Homo sapiens, UniProt P98170). Briefly: Counter Screen using XIAP-Bir3 for Chemical Antagonists of Bir1/2 domains of IAP-family anti-apoptotic proteins. [Related pubchem assays (depositor defined):AID1018, AID1449, AID1514, AID1638, AID1749, AID1750, AID488957, AID488963].
Assay [12] concerns the target T3, E3 ubiquitin-protein ligase XIAP. Briefly: XIAP antagonists, biochemical, IAP family, fluorescence polarization (AID 1018). It is filed as functional.

T3 sequence (P98170 whole entry): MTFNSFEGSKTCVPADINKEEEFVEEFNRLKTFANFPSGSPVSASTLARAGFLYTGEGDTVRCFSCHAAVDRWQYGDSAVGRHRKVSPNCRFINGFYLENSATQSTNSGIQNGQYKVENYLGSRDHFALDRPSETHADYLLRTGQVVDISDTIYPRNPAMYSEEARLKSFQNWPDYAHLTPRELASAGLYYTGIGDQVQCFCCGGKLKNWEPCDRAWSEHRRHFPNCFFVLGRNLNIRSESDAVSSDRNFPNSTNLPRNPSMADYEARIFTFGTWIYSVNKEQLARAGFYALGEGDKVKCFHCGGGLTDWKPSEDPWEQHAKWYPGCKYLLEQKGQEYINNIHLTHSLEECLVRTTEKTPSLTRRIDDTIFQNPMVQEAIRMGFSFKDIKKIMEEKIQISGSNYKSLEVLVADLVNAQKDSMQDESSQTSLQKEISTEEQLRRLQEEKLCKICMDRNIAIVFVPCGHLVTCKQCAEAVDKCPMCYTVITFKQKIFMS
Chain of Cytochrome P450 3A4 (P08684 whole entry): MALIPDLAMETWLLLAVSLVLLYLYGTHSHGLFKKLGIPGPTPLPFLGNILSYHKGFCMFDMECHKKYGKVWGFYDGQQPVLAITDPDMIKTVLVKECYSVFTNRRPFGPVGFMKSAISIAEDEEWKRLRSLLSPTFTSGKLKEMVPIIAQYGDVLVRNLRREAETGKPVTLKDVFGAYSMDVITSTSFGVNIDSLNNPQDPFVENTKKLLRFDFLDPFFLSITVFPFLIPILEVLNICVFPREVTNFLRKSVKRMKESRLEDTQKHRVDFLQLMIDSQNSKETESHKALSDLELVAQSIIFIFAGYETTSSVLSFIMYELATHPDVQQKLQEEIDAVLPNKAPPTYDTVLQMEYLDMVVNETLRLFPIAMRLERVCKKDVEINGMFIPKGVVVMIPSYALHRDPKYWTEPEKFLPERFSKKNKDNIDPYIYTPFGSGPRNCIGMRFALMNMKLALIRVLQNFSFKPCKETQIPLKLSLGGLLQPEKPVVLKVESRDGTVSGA
Chain of SUMO-activating enzyme (Q9UBE0 whole entry): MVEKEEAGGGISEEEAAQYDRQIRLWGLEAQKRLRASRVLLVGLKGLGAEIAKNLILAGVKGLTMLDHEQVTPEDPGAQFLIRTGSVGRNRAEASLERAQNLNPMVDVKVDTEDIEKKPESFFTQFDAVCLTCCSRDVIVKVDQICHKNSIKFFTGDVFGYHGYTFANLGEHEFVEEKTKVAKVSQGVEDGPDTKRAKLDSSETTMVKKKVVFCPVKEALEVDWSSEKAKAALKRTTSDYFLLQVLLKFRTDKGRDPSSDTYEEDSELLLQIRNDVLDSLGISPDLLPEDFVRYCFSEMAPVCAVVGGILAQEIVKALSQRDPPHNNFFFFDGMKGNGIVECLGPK
Chain of SUMO-activating enzyme (Q9UBT2 whole entry): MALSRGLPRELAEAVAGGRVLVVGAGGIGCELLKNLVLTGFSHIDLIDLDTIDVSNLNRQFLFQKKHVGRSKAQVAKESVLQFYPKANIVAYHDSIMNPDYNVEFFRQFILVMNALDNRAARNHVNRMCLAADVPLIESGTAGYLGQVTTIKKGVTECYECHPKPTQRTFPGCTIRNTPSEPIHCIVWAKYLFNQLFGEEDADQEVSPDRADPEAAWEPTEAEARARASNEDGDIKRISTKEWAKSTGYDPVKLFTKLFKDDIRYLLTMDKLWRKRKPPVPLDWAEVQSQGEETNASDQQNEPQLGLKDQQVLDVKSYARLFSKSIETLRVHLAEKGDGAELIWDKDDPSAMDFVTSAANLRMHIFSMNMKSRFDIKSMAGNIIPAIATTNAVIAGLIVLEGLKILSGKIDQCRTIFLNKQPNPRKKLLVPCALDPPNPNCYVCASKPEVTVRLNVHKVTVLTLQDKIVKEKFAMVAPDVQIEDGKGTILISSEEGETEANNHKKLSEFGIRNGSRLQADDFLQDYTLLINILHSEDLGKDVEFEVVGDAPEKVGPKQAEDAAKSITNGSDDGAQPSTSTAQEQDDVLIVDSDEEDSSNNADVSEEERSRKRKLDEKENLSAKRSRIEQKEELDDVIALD
Chain of Cytochrome P450 2C9 (P11712 whole entry, the tested form may be a part): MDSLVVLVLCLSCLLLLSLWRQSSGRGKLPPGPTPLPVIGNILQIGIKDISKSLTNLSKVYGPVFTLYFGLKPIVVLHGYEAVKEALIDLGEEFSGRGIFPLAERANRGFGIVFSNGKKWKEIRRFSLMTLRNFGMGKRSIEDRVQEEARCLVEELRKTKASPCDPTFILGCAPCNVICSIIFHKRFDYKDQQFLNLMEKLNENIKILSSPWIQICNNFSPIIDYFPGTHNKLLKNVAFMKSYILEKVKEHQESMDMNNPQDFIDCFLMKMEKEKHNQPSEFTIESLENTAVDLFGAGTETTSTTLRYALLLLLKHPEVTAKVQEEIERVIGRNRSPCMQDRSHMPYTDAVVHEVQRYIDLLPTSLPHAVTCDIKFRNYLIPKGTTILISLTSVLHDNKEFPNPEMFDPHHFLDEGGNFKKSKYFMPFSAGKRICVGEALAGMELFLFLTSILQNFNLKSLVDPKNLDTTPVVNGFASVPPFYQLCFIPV
Chain of Glyceraldehyde-3-phosphate dehydrogenase (P04406 whole entry): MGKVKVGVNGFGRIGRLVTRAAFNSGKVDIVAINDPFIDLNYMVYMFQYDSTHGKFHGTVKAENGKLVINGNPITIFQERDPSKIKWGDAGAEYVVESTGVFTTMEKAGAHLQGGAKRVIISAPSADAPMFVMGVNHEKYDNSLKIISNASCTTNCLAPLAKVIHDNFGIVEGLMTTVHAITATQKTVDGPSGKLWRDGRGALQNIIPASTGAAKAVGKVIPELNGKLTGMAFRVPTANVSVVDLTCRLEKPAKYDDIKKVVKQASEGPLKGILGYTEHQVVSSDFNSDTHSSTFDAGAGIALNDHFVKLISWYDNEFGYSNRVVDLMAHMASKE

Take `CCCCN1CCCCC1C(=O)Nc1c(C)cccc1C` (centres undefined) [BUPIVACAINE HYDROCHLORIDE]: the AC50 at Cytochrome P450 3A4 is 31.6 µM (inconclusive).

For `c1ccc(CCN2CCN(c3ncnc4c3cnn4-c3ccccc3)CC2)cc1`, the IC50 in assay [1] is 30.2 µM (active). Further, the 50% effective concentration (EC50) was 2.38 µM (active) in assay [2] and > 30 µM (not active) in assay [3]. The CC50 in assay [4] is > 40 µM (active).

For the compound `CC(=O)Nc1ccc(NC(=O)Cn2c(-c3ccc(F)cc3)cnc2SCC(=O)Nc2c(C)cccc2C)cc1`, on SUMO-activating enzyme, the half-maximal inhibitory concentration (IC50) is 61.6 µM (active). Further, the AC50 on Cytochrome P450 2C9 is 17.8 µM (inconclusive).

As for `Cc1cccc(CCNC(=O)C2CCCN(c3ncnc4c3nc3n4CCCCC3)C2)c1` (centres undefined), in assay [1], the IC50 is 11.8 µM (active).

On to `O=C(Cn1cnc2c(nnn2-c2ccccc2)c1=O)NCc1ccc(F)cc1`, for which the 50% inhibitory concentration (IC50) in [5] is 6.76 µM (active).

For `O=C(N/N=C/c1ccc2c(c1)OCO2)c1cc(-c2ccco2)nc2ccccc12`, the IC50 in assay [5] is 10.8 µM (active).

For the compound `Cc1cccc(N2C(=O)C(Cl)=C(N3CCN(Cc4ccccc4)CC3)C2=O)c1`, the half-maximal inhibitory concentration (IC50) in [6] was > 50 µM (inconclusive).

As for `COc1cc(/C=C(/C(=O)c2cccs2)c2nc3ccccc3[nH]2)ccc1O`, the IC50 is > 20 µM (inactive) in the assay with HEK293 [7], 2.96 µM (active) with HEK293 [8] and 4.02 µM (active) in the assay on HEK293 [10]. In addition, the EC50 with HEK293 [9] was 12.1 µM (active). Further, the half-maximal activity concentration (AC50) with INS1 is 18 µM (active).

For the compound `COc1ccc(S(=O)(=O)N2CCOC2CNC(=O)C(=O)NCCc2c[nH]c3ccccc23)cc1` (centres undefined), the IC50 in [11] is > 100 µM (inactive); in assay [12], > 100 µM (not active).

For `COC(=O)[C@H]1C[C@H]2CC[C@H](O)C[C@H]2N1CC1CC1`, on Cytochrome P450 3A4, the AC50 is 25.1 µM (inconclusive).
